Reference: patent US20210244814A1, “COMBINATION OF METFORMIN AND CYCLOPHOSPHAMIDE AS AN ADJUVANT IN CANCER IMMUNOTHERAPY” (UNIVERSITÉ CATHOLIQUE DE LOUVAIN, priority 2018, published 2021)

Experiments:
[1] = system: TCRP1A CD8^+ T cells, Treg cells and PMN-MDSCs infiltrating TiRP tumors; test: FACS analysis of tumor-infiltrating cells in TiRP-tumor bearing mice after adoptive cell transfer (ACT); assay type: in vivo; details: for tumor infiltration of the transferred TCRP1A CD8+ T cells / survival of the transferred TCRP1A CD8+ T cells (apoptosis, annexin V): 14 days after ACT, CTX 100 mg/kg one day before ACT and/or metformin 0.5 mg/ml drinking water; for tumor infiltration of the transferred TCRP1A CD8+ T cells: FIG. 3A; for survival of the transferred TCRP1A CD8+ T cells (apoptosis, annexin V): FIG. 3B
Source text: (§1) TiRP mice have been created by crossing Ink4a/Arf^flox/flox mice with mice carrying a transgenic construct controlled by the tyrosinase promoter and driving the expression of H-Ras^12V and Trap 1 a which encodes a MAGE-type tumor antigen P1A; the promoter is separated from the coding region by a stop cassette made of a floxed self-deleting CreER (Huijbers et al., 2006, Cancer Res 66, 3278-3286). Those mice were backcrossed to a B10.D2 background and bred to homozygosity. TCRP1A mice heterozygous for the H-2Ld/P1A35-43-specific TCR transgene were kept on the B10.D2;Rag1^−/− background (Shanker et al., 2004, J Immunol 172, 5069-5077).
(§2) A fresh solution of 4OH-Tamoxifen was prepared by dissolving 4OH-Tamoxifen (Imaginechem) in 100% ethanol and mineral oil (ratio 1:9) followed by 30-min sonication, and injected subcutaneously (2 mg/200 μl per mouse) in the neck area of gender-matched 7 weeks old TiRP mice. Tumor appearance was monitored daily and tumors were measured three times/week. Tumor volume (in mm^3) was calculated by the following formula: Volume=width^2×length×π/6. Tumor-bearing TiRP mice were randomized based on the tumor size when average volume was 500 mm^3 and treated as indicated. For cyclophosphamide (CTX, Sigma C7397) treatment, mice received an intra-peritoneal injection of CTX at 100 mg/kg or vehicle (PBS) 24 h before adoptive cell transfer. For metformin treatment, metformin (Enzo, ALX-270-432) was dissolved in mice drinking water at a concentration of 0.5 mg/ml and administered to the mice from the moment of adoptive cell transfer until the end of the experiment; the solution was replaced three times/week.
(§3) For the adoptive cell transfer (ACT), P1A-specific (TCRP1A) CD8^+ T cells were isolated from spleens and lymph nodes of TCRP1A mice using anti-mouse CD8α (Ly-2) MicroBeads (Miltenyi Biotec), and stimulated in vitro by co-culture with irradiated (10.000 rads) L1210.P1A.B7-1 cells (Gajewski et al., 1995, J Immunol 154, 5637-5648) at 1:2 ratio (0.5×10^5 CD8^+ T cells and 10^5 L1210.P1A.B7-1 cells per well in 48-well plates) in IMDM (GIBCO) containing 10% fetal bovine serum supplemented with L-arginine (0.55 mM, Merck), L-asparagine (0.24 mM, Merck), glutamine (1.5 mM, Merck), betamercaptoethanol (50 μM, Sigma), 50 Uml^−1 penicillin and […] streptomycin (Life Technologies). Four days later, TCRP1A CD8^+ T cells were purified on a Lymphoprep gradient (StemCell) and 10^7 living cells were injected intravenously in 200 μl PBS in TiRP-tumor bearing mice.
For hypoxia detection, mice received an intraperitoneal injection of pimonidazole hydrochloride at 60 mg/kg (Hypoxyprobe) 45 minutes before tumor harvesting. Tumor single cell suspension was prepared using gentleMACS Dissociator and incubating the tissue in RMPI containing 0.04% collagenase I, 0.04% collagenase II and 0.05% dispase (all from GIBCO) for 1 hour at 37° C. After passing the cell suspension through a 70 μm- and 40 μm-cell strainer, red blood cell lysis was performed (eBioscience, 00-4300-54). Tumor cell preparation was stained with the Viability dye eFluor780 (eBioscience, 1:1000) to identify dead cells during the FACS analysis, and then incubated with Mouse BD Fc Block (BD, clone 2.4G2, 1:100) in PBS supplemented with 2% FBS and 2 mM EDTA. TCRP1A CD8^+ T cells were labeled by using H-2L^d PIA tetramer-PE (1 μM, produced in-house at the Ludwig Institute for Cancer Research) and anti-CD8α BV-421 (BioLegend, 53-6.7, 1:200); for apoptosis quantification, Annexin V APC (BioLegend, 1:20) was used. Hypoxic cells were identified with the anti-pimonidazole antibody (Hypoxyprobe, HP-FITC-Mab 4.3.11.3, 1:100) after cell fixation and permeabilization according to manufacturer's instructions (eBioscience Transcription Factor Staining Buffer Set).

[2] = system: TiRP mice (genetically engineered mouse melanoma model); test: Tumor growth, tumor weight and survival of TiRP mice with or without ACT; assay type: in vivo; details: for tumor response to the immunotherapy (tumor growth) / tumor growth and tumor weight 14 days after ACT / tumor growth in the presence of ACT: TiRP mice with ACT; for tumor response to the immunotherapy (tumor growth): up to 22 days after ACT, FIG. 6A; for tumor growth and tumor weight 14 days after ACT: CTX 100 mg/kg the day before ACT and/or metformin 0.5 mg/ml for 14 days, FIG. 5; for tumor growth in the presence of ACT / tumor growth in absence of ACT: FIG. 7; for tumor growth in absence of ACT: TiRP mice without ACT
Source text: as §1, §2, §3
Data entry and all analyses were performed in a blinded fashion. All statistical analyses were performed using GraphPad Prism software. Statistical significance was calculated by two-tailed unpaired t-test on two experimental conditions or two-way analysis of variance (ANOVA) when repeated measures were compared, with p<0.05 considered statistically significant. Independent experiments were pooled and analyzed together whenever possible. All graphs show mean values±s.e.m.

B16F1 melanoma tumors = test: B16F1 melanoma tumor growth with anti-PD-1 antibody or isotype control; assay type: in vivo, mice; details: FIG. 8A; for growth of B16F1 melanoma tumors, single treatment: B6 mice
Source text: (§4) Gender and age matched […] wild-type mice were used for the experiments with checkpoint inhibitors.
(§5) For the experiments with checkpoint inhibitors, gender matched, 7-9 weeks old […] wild-type mice were subcutaneously injected with 1 million of B16F1 or MC38 tumor cells. Mice were randomized based on the tumor size one week after the injection of tumor cells (B16F1 melanoma model) or when the average tumor size was between 90 and 120 mm^3 (MC38 colon carcinoma model). Tumor-bearing mice were then treated with CTX or PBS as described above. One day after, metformin was prepared as mentioned above and added to the mice drinking water until the end of the experiment. A dose of 100 μg/mouse of anti-PD-1 antibody (clone RMP1-14, Bio-X-Cell) or RatIgG2a isotype (clone 2A3, Bio-X-Cell) was injected intraperitoneally three times (B16F1 model) or four times (MC38 model) every three or four days starting from the day after CTX or PBS treatment.

MC38 colon carcinoma = MC38 colon carcinoma tumor rejection with anti-PD-1 antibody; assay type: in vivo, mice; details: MC38, 16 days after treatment, associated with the PD-1 inhibitor; FIG. 9B-D
Source text: as §4, §5

Compound	infiltration of TCRP1A CD8^+ T cells in the tumor ([1]; 4 days after ACT, metformin 0.5 mg/ml in drinking water from ACT, vs vehicle, FIG. 1A)	recruitment of TCRP1A CD8^+ T cells to the hypoxic regions of the tumor ([1]; 4 days after ACT, metformin 0.5 mg/ml in drinking water, pimonidazole-positive, FIG. 1B)	tumor infiltration of the transferred TCRP1A CD8+ T cells [1]	survival of the transferred TCRP1A CD8+ T cells (apoptosis, annexin V) [1]	tumor response to the immunotherapy (tumor growth) [2]	tumor growth and tumor weight 14 days after ACT [2]	tumor growth in the presence of ACT [2]	tumor growth in absence of ACT [2]	growth of B16F1 melanoma tumors, single treatment (B16F1 melanoma tumors)	tumor response to the PD-1 inhibitor (B16F1 melanoma tumors; B16F1, associated with anti-PD-1 antibody 100 μg on day 0, 3, 7, C, D)	mice that had rejected the tumor (MC38 colon carcinoma) [%]	tumor infiltration of Treg cells ([1]; 4 days after ACT, single injection of CTX 100 mg/kg one day before ACT, FIG. 2A)	tumor infiltration of PMN-MDSCs ([1]; 4 days after ACT, single injection of CTX 100 mg/kg one day before ACT, FIG. 2B)
CN(C)C(=N)N=C(N)N [metformin, 3-(diaminomethylidene)-1,1-dimethylguanidine]	significantly increased	allowed the recruitment	increased tumor infiltration	increased survival	did not seem to induce a significant tumor response	seemed to partially reduce tumor growth	did not inhibit tumor growth	did not inhibit tumor growth	not significantly affected	did not seem to induce a significant tumor response	20		
O=P1(N(CCCl)CCCl)NCCCO1 (stereo not drawn) [cyclophosphamide, 2-[bis(2-chloroethyl)amino]-1,3,2λ^5-oxazaphosphinan-2-one]			increase	increase	did induce a significant tumor response	allowed an inhibition of the tumor growth	tumor response was improved by the immunotherapy	significantly reduced tumor growth	induced per se a significant tumor response		40	reduced	reduced
